Data set [1] deals with Hannaford swine. Briefly: Hemodynamic measurements in anesthetized swine, epicardial patch vs pericardial catheter vs IV. Format: in vivo. As to the method: Hannaford swine (15-25 weeks old, 45-60 kg) were fasted overnight but given full access to water. Telazol (2 mg/kg IM at a ratio of zolazepam:tiletamine of 1:1) was given IM for sedation. Anesthesia was induced with inhaled isoflurane 2% prior to tracheal intubation (9.0 cuffed). A 22 gauge peripheral IV was inserted into an ear vein for drug administration and volume resuscitation (Ringer's lactate 4 ml/kg/hr). Anesthesia was maintained during surgical preparation with isoflurane 2% in oxygen. Respiratory rate was be fixed to 10 breaths per minute and the tidal volume adjusted between 6 and 10 ml/kg to maintain expired end-tidal carbon dioxide between 35 and 40 mmHg. Inhaled isoflurane was discontinued after surgical preparation, and balanced total intravenous anesthesia was initiated with pentobarbital (10 mg/kg/hr) and pancuronium (0.5 mcg/kg/hr) prior to experimentation.
Vascular access introducer sheaths (7 FR) were placed in a femoral vein, the right internal jugular vein and both femoral arteries using a Seldinger technique under ultrasound guidance. A balloon tipped pulmonary artery catheter was inserted through the right internal jugular venous sheath and into the pulmonary artery to allow measurement of central venous pressure (CVP), pulmonary artery pressures, and thermodilution cardiac output. Heparin 5000 units was given to keep activated clotting time above 250 seconds. A pig-tail Millar conductance catheter was advanced retrograde across the aortic valve from the right femoral arterial sheath, and allows instantaneous recordings of the pressure and volume within the left ventricle. Following midline sternotomy the pericardium was retracted. Excess Ringer's lactate solution was given to replace blood losses and maintain CVP greater than 8 mm Hg. Continuous hemodynamic measurements were taken including heart rate (HR), mean arterial pressure (MAP), central venous pressure (CVP), contractility (max dP/dt), systemic vascular resistance (SVR), stroke volume (SV), cardiac output (CO) and stroke work (SW).
A pericardial drug releasing platform was constructed from 2 calcium crosslinked alginate disks which were sealed around the edges with GluStitch and formed a bladder for pericardial drug. A catheter was placed into the bladder formed by the two disks and allowed continuous infusion of inotropic drug into the pericardial fluid. This device spread drug over the surface of the heart at a controllable rate of delivery. In another experiment, dobutamine was introduced into the pericardial sac through a catheter without the use of the patch.
In yet another experiment, dobutamine was introduced intravenously.

Data set [2] can be described thus: Plasma dobutamine levels in arterial blood samples of swine. Format: in vivo. The settings on record: FIG. 10. The source says: Arterial blood samples were taken for measurement of plasma dobutamine levels.
Data set [3] can be described thus: Drug levels within the myocardium, tissue core from under the device, swine. Format: in vivo. The settings on record: patch release compared with IV infusion at the same dosage, all tissue depths, FIG. 11. From the text: The heart was arrested with a large potassium IV bolus and removed. A core of tissue from under the device was taken for measurement of drug levels within the myocardium.

The conditions of data set [4]: intravenous infusion systems; cited from earlier work.
Data set [5] relates to Sprague Dawley rat. Kind of data set: Hemodynamic and contractile indices in anesthetized rat, epicardial alginate patch vs IV infusion. To be noted: for systemic vascular resistance: FIG. 5. The format is in vivo. As to the method:
A Sprague Dawley rat was anesthetized with pentobarbital and catheters were placed in the right internal jugular vein and right femoral artery for continuous pressure measurement and IV access. An arteriotomy in the right carotid artery allowed passage of a Millar (Houston, Tex.) conductance pressure-volume catheter across the aortic valve and into the left ventricle. This catheter allows measurement of indices of myocardial contractile function. A tracheotomy was performed and the animal ventilated prior to sternotomy and chest retraction.
A pericardial drug releasing platform was made from a calcium crosslinked alginate disk (6.5 mm diameter) and placed on top of the left ventricle. Dobutamine was then applied to the drug release platform for pericardial inotropic treatments. […]

Setting [6] is: patch delivery, PV loop, FIG. 4.
Where [7] appears, read: patch release 1 mcg/kg/min compared with IV infusion at the same dosage, FIG. 3.
Setting [8] is: patch release compared with intravenous infusion, FIG. 6.

In the case of `CC(CCc1ccc(O)cc1)NCCc1ccc(O)c(O)c1` (centres unmarked) [dobutamine], in data set [1] (after pericardial application, FIG. 8), the “time response of increasing contractility” value is “very rapid”. The “stroke work per stroke volume” value in data set [1] (patch 0.5 mcg/kg/min compared with IV infusion at the same dosage, FIG. 9) is given as “less”. For the same molecule, the “myocardial contractility, dose response” value in data set [1] (patch release compared with release via catheter in the pericardial sac, FIG. 7) is given as “greater increase”. Moreover, in data set [1] (patch release, FIG. 8), the cardiac output result is reported as “increased”, the contractility result is reported as “increased” and the systemic vascular resistance result is “without significantly reducing”. In addition, in data set [2] (intravenous infusion compared with patch release), the plasma concentration entry was “substantially higher”. In data set [2] (pericardial (patch) delivery compared with IV delivery), the plasma drug levels result was “lower”. For the same molecule, the myocardial dobutamine concentration result in data set [3] is listed as “orders of magnitude higher”. For the same molecule, the “dosage typically required for therapeutic effect on contractility” value in data set [4] was “at least 2 mcg/kg/min”. Besides, in data set [5] (intravenous infusion 1 mcg/kg/min), the systemic vascular resistance entry is on record as “excessively decreases”. Also, the cardiac work efficiency result in data set [5] (patch 1 mcg/kg/min compared with IV infusion at the same dosage, FIG. 4) is given as “more efficient cardiac work”. Also, the ventricular stroke volume entry in data set [5] (patch 1 mcg/kg/min compared with IV infusion at the same dosage, pressure volume loops, FIG. 4) is reported as “greater ventricular stroke volume”. Moreover, in data set [5] (setting [6]), the “LV pressure during ejection” value was “no increase”, the diastolic filling result is given as “minimal change” and the end-systolic volume entry is listed as “marked reduction”. Moreover, the “myocardial stroke work (SW)” value in data set [5] (patch delivery, area inside PV loop, FIG. 4) is listed as “minimal increase”. Further, in data set [5] (setting [7]), the “contractility of myocardial tissue (max dP/dt)” value was “greater increase in contractility” and the “duration of the increase in contractility” value is listed as “sustained for a longer period of time”. Also, the systemic vascular resistance result in data set [5] (patch release 1 mcg/kg/min) is “only minimal effect”. Also, in data set [5] (setting [8]), the “increase in contractility relative to dose” value was “larger increase in contractility with a smaller dose”; the “potency and effect on contractility” value was “more potent and efficacious”.
On to `C[C@@H]1CC(=O)NN=C1c1ccc(NN=C(C#N)C#N)cc1` [levosimendan], for which, in data set [4], the “dosage typically required for therapeutic effect on contractility” value is not below 0.1 µg/kg/min.
